Laboratory results from US20260034222A1, “HYDROGEL COMPOSITION FOR THE TREATMENT OF PERITONEAL DISEASES” (UPyTher B.V., priority 2023, published 2026).

What was measured:
[1] = in vivo; cited from earlier work
[2] = in words; cited from earlier work
[3] = Mitomycin C and VX970 combined release from hydrogel; assay type: physicochemical; conditions: Polymer 7, 5 wt %, 12 μg/ml VX970 with 0.52 mM MMC (FIG. 7)
Protocol: Mitomycin C (MMC) was loaded from a stock solution (52 mM in DMSO) to 0.52 mM in the hydrogel solution. VX970 was loaded from a stock solution (1.2 mg/ml in DMSO) to 12 μg/ml. The drug loaded solution (100 μL) was transferred to a Millicell insert, which was placed in a 24-wells plate filled with PBS pH 7.4 (700 μL). At set time points the PBS was refreshed and the removed PBS was analyzed for MMC content by UV absorbance at 363 nm. For VX970, a HPLC-MS/MS method was used (Kiesel et al.). Release experiments were performed with n=3.

[4] = TLR-agonist release from UPy-PEG hydrogels; assay type: physicochemical; conditions: Polymer 6, 6 and 10 wt %, 0.5 mM MEDI9197 (FIG. 11B)
Protocol: The TLR-agonist resiquimod (synonym R848) was loaded from a stock solution (50 mM in DMSO) to 1.27 mM in the hydrogel. The TLR-agonist telratolimod (synonym MEDI9197) was loaded from a stock solution (10 mM in DMSO) to 0.5 mM in the hydrogel.
The drug loaded solution (100 μL) was transferred to a Millicell insert, which was placed in a 24-wells plate filled with PBS pH 7.4 (700 μL). At set time points the PBS was refreshed and the removed PBS was analyzed for R848 content UV absorbance at 320 nm. For MEDI9197, PBS was substituted for a volatile ammonium carbonate buffer and a HPLC-MS method was used. Release experiments were performed with n=3.

tumor cell lines = conditions: cited from earlier work
[5] = Mitomycin C release from UPy-PEG hydrogels; assay type: physicochemical
Protocol: Mitomycin C was loaded from a stock solution (52 mM in DMSO) to 0.52 mM in the hydrogel solution. The drug loaded solution (100 μL) was transferred to a Millicell insert, which was placed in a 24-wells plate filled with PBS pH 7.4 (600 μL). At set time points the PBS was refreshed and the removed PBS was analyzed for drug content UV absorbance at 363 nm. Release experiments were performed with n=3.

[6] = system: mice with peritoneal metastases; conditions: intraperitoneal lavage for 90 minutes versus 60 minutes; cited from earlier work
patients = conditions: dosing regimens of 35 mg/m2; cited from earlier work
[7] = Drug release from thermoreversible RTGel hydrogel; assay type: physicochemical; conditions: 0.4 mM, PBS pH 7.4 (FIG. 10)
Protocol: RTGel hydrogel was formulated using the following ingredients and quantities:
Mitomycin C and chol-MMC were loaded from a stock solution (30 mM in DMSO) to 0.4 mM in the hydrogel solution. The drug loaded solution (100 μL) was cooled and transferred to a Millicell insert, which was placed in a 24-wells plate filled with PBS pH 7.4 (600 μL). At set time points the PBS was refreshed and the removed PBS was analyzed for drug content UV absorbance at 363 nm. Release experiments were performed with n=3.

CC(=O)O[C@@]12CO[C@@H]1C[C@H](O)[C@@]1(C)C(=O)[C@H](O)C3=C(C)[C@@H](OC(=O)[C@H](O)[C@@H](NC(=O)OC(C)(C)C)c4ccccc4)C[C@@](O)([C@@H](OC(=O)c4ccccc4)[C@H]21)C3(C)C [docetaxel]
clearance from the peritoneal cavity [1]: cleared in less than day

CNCc1ccc(-c2cc(-c3nc(-c4ccc(S(=O)(=O)C(C)C)cc4)cnc3N)on2)cc1 [VX-970, berzosertib]
solubility in water [2]: insoluble in water | release rate relative to MMC [3]: released slower than MMC

CCCCCCCCCCCCCCCCCC(=O)NCCCCOn1c(CCCC)nc2c(N)nc3ccccc3c21 [MEDI9197, telratolimod]
release rate relative to comparator [4]: released slower than MMC

CC(=O)O[C@H]1C(=O)[C@@]2(C)[C@H]([C@H](OC(=O)c3ccccc3)[C@]3(O)C[C@H](OC(=O)[C@H](O)[C@@H](NC(=O)c4ccccc4)c4ccccc4)C(C)=C1C3(C)C)[C@]1(OC(C)=O)CO[C@@H]1C[C@@H]2O [paclitaxel]
clearance from the peritoneal cavity [1]: cleared in less than day

CO[C@@]12[C@H](COC(N)=O)C3=C(C(=O)C(C)=C(N)C3=O)N1C[C@@H]1N[C@@H]12 [Mitomycin C]
concentration required to kill 90% of the cells (tumor cell lines; exposure time more than 10 hours): 0.1 µg/mL | concentration needed to kill 90% of the cells in culture (tumor cell lines; exposure time shorter than one hour): 5 µg/mL | duration of sustained mitomycin C release ([5]; polymer 6, 6, 7, 8 wt %, 0.52 mM, PBS pH 7.4 (FIG. 6)): 1 to 2 days | dependence of drug release on polymer density ([5]; polymer 6, 6, 7 or 8 wt %): not dependent on the polymer density | effect of higher precursor pH on burst release ([5]; polymer 6, precursor pH 8.5, 9.0 or 9.5): did not give rise to an increased burst release | survival [6]: better survival | half-life in the peritoneal cavity [1]: 1 to 1.5 h | patients who developed severe bone marrow suppression (patients): 28% | time of release from Pluronic-based RTGel hydrogel [7]: 1 to 2 days
